From the NIST ThermoML archive (doi:10.1016/j.jct.2006.10.012)

Legend:
[1] = Molar enthalpy of transition or fusion; details: Crystal; Adiabatic calorimetry

Cc1ccc2nc(C)ccc2c1 [2,6-dimethylquinoline]
Liquid
Details	vapor or sublimation pressure [kPa]
336.99 K, Inclined piston gauge	0.0375
339.98 K, Inclined piston gauge	0.0461
349.98 K, Inclined piston gauge	0.0877
359.98 K, Inclined piston gauge	0.1589
369.98 K, Inclined piston gauge	0.2786
379.97 K, Inclined piston gauge	0.4711
389.97 K, Inclined piston gauge	0.7716
399.97 K, Inclined piston gauge	1.227
404.97 K, Inclined piston gauge	1.532
409.97 K, Inclined piston gauge	1.899
411.21 K, Twin ebulliometer	2
414.96 K, Inclined piston gauge	2.34
428.45 K, Twin ebulliometer	3.987
436.24 K, Twin ebulliometer	5.329
447.73 K, Twin ebulliometer	7.992
456.33 K, Twin ebulliometer	10.65
463.33 K, Twin ebulliometer	13.33
470.57 K, Twin ebulliometer	16.66
476.57 K, Twin ebulliometer	19.93
484.49 K, Twin ebulliometer	25.02
492.47 K, Twin ebulliometer	31.19
500.45 K, Twin ebulliometer	38.56
508.5 K, Twin ebulliometer	47.36
516.61 K, Twin ebulliometer	57.81
524.76 K, Twin ebulliometer	70.1
532.96 K, Twin ebulliometer	84.5
541.22 K, Twin ebulliometer	101.3
549.51 K, Twin ebulliometer	120.76
557.86 K, Twin ebulliometer	143.19
566.25 K, Twin ebulliometer	168.98
574.7 K, Twin ebulliometer	198.44
583.18 K, Twin ebulliometer	231.96
591.71 K, Twin ebulliometer	269.97

Details	Critical temperature [K]	Triple point temperature [K]	mass density [kg/m3]
348.13 K, Liquid	–	–	995.1
373.12 K, Liquid	–	–	975.8
398.12 K, Liquid	–	–	956.9
423.12 K, Liquid	–	–	938.7
448.11 K, Liquid	–	–	914.4
473.11 K, Liquid	–	–	894
498.11 K, Liquid	–	–	872.2
523.11 K, Liquid	–	–	849.2
Crystal, Adiabatic calorimetry	–	330.84	–
Liquid, DTA	786	–	–

Details	Molar enthalpy of transition or fusion [kcal/mol]
[1]	4.88
